From US20230125749A1, “COMPOSITION CONTAINING PEPTIDE OR PEPTIDE COMPOUND AS ACTIVE INGREDIENT, AND MEDICAL USE THEREFOR” (AJOU UNIVERSITY INDUSTRY-ACADEMIC COOPERATION FOUNDATION, priority 2019, published 2023)

System: intraperitoneal macrophages
Experiment: Fluorescence-labeled cells among intraperitoneal macrophages after oral administration of fluorescence-conjugated peptides to normal mice
Assay type: in vivo, mouse
Details: measured after 48 and 72 hours, FIG. 10
Experimental: Furthermore, peptides 1, 2, and 4 were orally administered to normal mice after conjugation with each different fluorescence, and the frequency of fluorescence-labeled cells was measured among intraperitoneal macrophages after 48 and 72 hours.

LICPEKYCNKVHT [P1]
time for which the fluorescence-labeled peptide was maintained among intraperitoneal macrophages: up to 72 hours
